Columns and labels:
Parameters in all cases: species or system prototype foamy virus (PFV)
[1] = target: T1, PFV IN complexed with various DNA sequences (Human spumaretrovirus, UniProt P14350); assay: DTG binding to IN complexed with various DNA sequences, fluorescence intensity procedure; details: for DTG-binding (%) Fluorescence intensity procedure: normalized by DNA#1, [IN]=[DNA]=1.8 μM, [DTG]=0.3 μM, 1 mM Mg2+
T1 construct: The full-length wt IN^PFV, the three single mutants of the catalytic triad; His; made in house; host or cells: E. coli BL21-CodonPlus (DE3)-RIPL
Protocol: All experiments were performed in the presence of 1 mM Mg^2+ (see Supplementary Fig. S4 for [Mg^2+] = 10 mM). λex = 345 nm and PMT = 980 V (Δλex = Δλem = 5 nm). […] Contributions of Raman and Rayleigh scattering were eliminated in the inset spectrum: (viii) = (iv)–(vii) where (vii) represents the proper spectrum of Mg^2+-DTG in the context of the binary IN-DNA complex. […] [Mg^2+] = 1 mM. Inset: fluorescence intensity (375–385 nm) as a function of (IN + DNA). The arrows indicate the intensity level after addition of 500 mM NaCl. Emission spectra are representative of 3 independent experiments for each condition of (IN + DNA). […] (E) Measurement of the binary IN-DNA complex formation. The formation of binary complexes was performed by monitoring the fluorescence anisotropy (r) of DNA (Fl-PFV^CAAT) under similar experimental conditions of the DTG-binding assay (panels C-D). Top, varying stoichiometric concentrations of IN and DNA were mixed and the r parameter was monitored. A constant concentration of Fl-DNA (0.3 μM) was maintained throughout the titration. […] Bottom, corresponding percentages of binary complexes as a function of (IN + DNA): % = (r–r0)/(rmax–r0)x100 where r0 and rmax correspond to anisotropy values of free DNA and IN-bound DNA, respectively. (F) Linear relationship between the percentages of ternary and binary complexes. […]
(§1) Fluorescence excitation and emission spectra of INSTIs were recorded on a Eclipse (Varian) spectrofluorimeter equipped with two polarizers for anisotropy measurements and a thermostated cell holder, using 80 µl solutions placed in micro cells (Hellma). Drug, IN and DNA concentrations, excitation/emission slit settings as well as the photomultiplier tube (PMT) voltage are specified in figure legends. The intensity value was corrected from the inner filter effect. The steady-state fluorescence anisotropy was calculated using: r = (IVV–G x IVH)/(IVV + 2GxIVH) where IVV and IVH correspond to vertical and horizontal components, respectively, when the sample is excited with vertically polarized light. G represents the correction factor for the difference in the monochromator transmission between // and ⊥ polarized components: G = IHV/IHH. All experiments were performed at 25 °C in buffer A: 20 mM Tris pH 7.2, 50 mM NaCl, 1 mM DTT and 10% (v/v) DMSO.

[2] = target: T1, PFV IN complexed with various DNA sequences; assay: DTG binding to IN complexed with various DNA sequences, fluorescence anisotropy procedure; details: normalized by DNA#1, [IN]=[DNA]=1.8 μM, [DTG]=0.6 μM, 10 mM Mg2+
Protocol: The binary complex concentration was measured as explained in Fig. 2E. […] This percentage was then plotted against the concentration of the binary complex (F). […] All graphs show representative data of three (panels A and B) or two (panels C–F) independent experiments.
as §1

G187R IN^PFV-DNA complex = target: T2, G187R IN^PFV-DNA complex (Human spumaretrovirus, UniProt P14350, G938R/G968S/S969G); assay: Fluorescence enhancement DTG-binding assay, G187R mutant; details: DTG 0.3 μM, 1 mM Mg2+
T2 construct: The pET-IN-PFV plasmid containing the full-length IN gene was used for mutagenesis; His; made in house; host or cells: E. coli BL21-CodonPlus (DE3)-RIPL
Protocol: (§2) The fluorescence intensity was monitored as a function of (IN + DNA) and plotted as a function of the binary IN-DNA complex concentration (measured as explained in Fig. 2E legend). […] The graphs in panels A-B show representative data of three independent experiments.
as §1

S217K IN^PFV-DNA complex = target: T3, S217K IN^PFV-DNA complex (Human spumaretrovirus, UniProt P14350, G968K/S969G); assay: Fluorescence enhancement DTG-binding assay, S217K mutant; details: DTG 0.3 μM, 1 mM Mg2+
T3 construct: The pET-IN-PFV plasmid containing the full-length IN gene was used for mutagenesis; His; made in house; host or cells: E. coli BL21-CodonPlus (DE3)-RIPL
Protocol: as §2, §1

C[C@@H]1CCO[C@H]2Cn3cc(C(=O)NCc4ccc(F)cc4F)c(=O)c(O)c3C(=O)N12 [DTG, dolutegravir]
DTG-binding (%) Fluorescence intensity procedure ([1]; DNA#1 (cognate)): 100%
DTG-binding (%) Fluorescence intensity procedure ([1]; DNA#2): 83 ± 5%
DTG-binding (%) Fluorescence intensity procedure ([1]; DNA#3): 89 ± 6%
DTG-binding (%) Fluorescence intensity procedure ([1]; DNA#4): 84 ± 4%
DTG-binding (%) Fluorescence intensity procedure ([1]; DNA#5): 101 ± 5%
DTG-binding (%) Fluorescence intensity procedure ([1]; DNA#6): 76 ± 5%
DTG-binding (%) Fluorescence intensity procedure ([1]; DNA#7): 20 ± 3%
DTG-binding (%) Fluorescence intensity procedure ([1]; DNA#8): 7 ± 2%
DTG-binding (%) Fluorescence intensity procedure ([1]; DNA#9 (random sequence)): 9 ± 2%
DTG-binding (%) Fluorescence intensity procedure ([1]; DNA#10): 23 ± 3%
DTG-binding (%) Fluorescence intensity procedure ([1]; DNA#11): 24 ± 2%
DTG binding activity, % of the binding activity obtained with DNA#1 ([1]; DNA#12 (CAAT-3′→CAGT-3′), both procedures (text summary of Table 1)): 72–77%
DTG-binding (%) Fluorescence intensity procedure ([1]; DNA#12): 72 ± 6%
DTG-binding (%) Fluorescence intensity procedure ([1]; DNA#13 (processed DNA product)): 66 ± 4%
DTG binding activity, % of the binding activity obtained with DNA#1 ([1]; IN in complex with DNA#2→6 (text summary of Table 1)): > 76%
DTG-binding (%) Fluorescence anisotropy procedure ([2]; DNA#1 (cognate)): 100%
DTG-binding (%) Fluorescence anisotropy procedure ([2]; DNA#3): 96 ± 3%
DTG-binding (%) Fluorescence anisotropy procedure ([2]; DNA#7): 42 ± 6%
DTG-binding (%) Fluorescence anisotropy procedure ([2]; DNA#8): 8 ± 2%
DTG-binding (%) Fluorescence anisotropy procedure ([2]; DNA#9 (random sequence)): 15 ± 3%
DTG-binding (%) Fluorescence anisotropy procedure ([2]; DNA#11): 29 ± 3%
DTG-binding (%) Fluorescence anisotropy procedure ([2]; DNA#12): 77 ± 4%
DTG-binding (%) Fluorescence anisotropy procedure ([2]; DNA#13 (processed DNA product)): 79 ± 5%
DTG binding to G187R (G187R IN^PFV-DNA complex): No binding
DTG binding to S217K (S217K IN^PFV-DNA complex): No binding

From paper PMC5656594 (Scientific Reports, 2017)
